From ChEMBL document CHEMBL1201862, “PubChem BioAssay data set” (2004) come the findings set out here.

Activity calls are given as the source filed them. A value given as a limit tells only on which side of the number the result lay.

A short description of data set [1]: HEK-293T viability loss after treatment – luminescence, T-cell screen hits, cytotoxicity control for TCR NF-kB inhibitor project, dose response (AID 489026).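 Note: cells exposed to compound about 14 hours before the viability readout.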 It counts as functional, cell-based.
The target of data set [2] is Dual specificity tyrosine-phosphorylation-regulated kinase 1A (Rattus norvegicus, UniProt Q63470). It counts as biochemical, Homo sapiens.
Another data set deals with Escherichia coli. Put plainly: microbe, parasite or virus in culture.
Another data set deals with T1, Streptokinase A (Streptococcus pyogenes serotype M1, UniProt P10520).
T1 sequence (P10520 whole entry): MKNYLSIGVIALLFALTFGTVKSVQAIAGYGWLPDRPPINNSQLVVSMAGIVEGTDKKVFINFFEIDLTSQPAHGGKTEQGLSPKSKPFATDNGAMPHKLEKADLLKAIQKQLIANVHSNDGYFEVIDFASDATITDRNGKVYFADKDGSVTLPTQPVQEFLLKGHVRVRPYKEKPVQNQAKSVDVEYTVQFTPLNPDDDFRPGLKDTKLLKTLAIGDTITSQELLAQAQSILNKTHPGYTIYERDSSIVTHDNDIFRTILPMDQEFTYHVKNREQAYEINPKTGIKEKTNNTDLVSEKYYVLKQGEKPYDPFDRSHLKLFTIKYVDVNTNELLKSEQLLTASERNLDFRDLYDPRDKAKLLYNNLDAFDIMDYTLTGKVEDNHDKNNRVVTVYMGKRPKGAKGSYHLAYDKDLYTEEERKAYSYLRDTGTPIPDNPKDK
Put plainly: viability-normalized secreted streptokinase activity reduction – plasminogen activation absorbance, OD405, dose response (AID 1914).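 Note: secreted streptokinase activity via plasminogen activation per viability signal from cell pellet.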 It counts as functional, Streptococcus pyogenes M1 GAS.

Data set [3] concerns Streptococcus sp. 'group A'. Put plainly: Streptococcus pyogenes SK(-)GAS viability under kanamycin – luminescence, BacTiterGlo, confirmation, counter-screen for streptokinase expression inhibitor project, dose response (AID 1900). The data set is classed as functional, organism-based. On the technique in general: The purpose of a counterscreen is to sort out artefacts and off-target activity.

The next data set deals with Streptococcus. Put plainly: GAS UMAA2166 growth inhibition – luminescence, BacTiterGlo, counter-screen for streptokinase expression inhibitor project, dose response (AID 1915).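 Note: potency for reduction of bacterial viability or growth.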 It counts as functional, organism-based.
Data set [4] in a line: Luminescence Cell-Based Dose Response HTS to Identify Activators of Luciferase Translation or Activity in H4 […] Cells. [Related pubchem assays: 1829 (Project Summary), 1814 (Primary HTS)]. It counts as functional.
The nature of data set [5]: Luminescence Cell-Based Dose Confirmation HTS to Identify Activators of 5'UTR Stem-Loop Driven Alpha-Synuclein mRNA Translation in H4 Neuroglioblastoma Cells. [Related pubchem assays: 1829 (Project Summary), 1814 (Primary HTS)]. It counts as functional.
Another data set concerns H4. Put plainly: Luminescence Cell-Based Dose Response HTS to Identify Activators of 5'UTR Stem-Loop Driven Prion Protein mRNA Translation in H4 Neuroglioblastoma Cells. [Related pubchem assays: 1829 (Project Summary), 1814 (Primary HTS)]. It counts as functional. The conditions noted are these: Homo sapiens.
For data set [6], the target named is T2, Heat shock factor protein 1 (Mus musculus, UniProt P38532).
T2 sequence (P38532 whole entry): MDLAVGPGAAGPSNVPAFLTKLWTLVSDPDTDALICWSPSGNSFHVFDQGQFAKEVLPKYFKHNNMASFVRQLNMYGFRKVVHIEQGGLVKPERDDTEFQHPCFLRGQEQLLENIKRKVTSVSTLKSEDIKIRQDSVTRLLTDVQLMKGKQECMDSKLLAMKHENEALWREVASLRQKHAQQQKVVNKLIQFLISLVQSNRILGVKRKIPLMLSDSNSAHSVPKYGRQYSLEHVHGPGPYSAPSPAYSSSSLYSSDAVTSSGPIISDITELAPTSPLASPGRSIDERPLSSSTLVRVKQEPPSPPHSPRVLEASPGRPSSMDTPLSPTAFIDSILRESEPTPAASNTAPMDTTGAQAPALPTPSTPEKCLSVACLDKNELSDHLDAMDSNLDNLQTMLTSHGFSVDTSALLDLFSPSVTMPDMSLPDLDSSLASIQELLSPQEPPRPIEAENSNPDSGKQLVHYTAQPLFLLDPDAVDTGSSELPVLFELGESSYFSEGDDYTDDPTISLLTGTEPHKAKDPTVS
Put plainly: decrease of HSF1-responsive luciferase luminescence – cell-based, NIH3T3, dose retest, confirmation (AID 2382).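 Note: NIH3T3 fibroblasts with HSF1-driven luciferase reporter stressed by proteasome inhibitor MG132; luminescence from HSF1-driven luciferase expression after 8 hours of MG132 stress.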 The data set is classed as functional.

For data set [7], the target named is T3, Ubiquitin-conjugating enzyme E2 N (Homo sapiens, UniProt P61088).
T3 sequence (P61088 whole entry): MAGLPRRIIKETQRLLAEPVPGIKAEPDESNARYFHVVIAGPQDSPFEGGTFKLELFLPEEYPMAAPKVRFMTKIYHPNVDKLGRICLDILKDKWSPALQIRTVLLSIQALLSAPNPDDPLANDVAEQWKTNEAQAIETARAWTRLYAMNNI
The data set is classed as functional.

The target in data set [8] is T3, Ubiquitin-conjugating enzyme E2 N. It counts as functional. This is another data set of the same source.
For a further data set, the target named is Nonstructural protein 1 (Influenza A virus, UniProt Q194T2). The data set is classed as functional, Influenza A virus (A/California/07/2009(H1N1)).
The target in another data set is T4, Bcl-2-related protein A1 (Mus musculus, UniProt Q07440).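 Note: confirmatory dose–response counterscreen on Bfl-1, used to check hits from a UBC13 polyubiquitin inhibitor campaign.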
T4 sequence (Q07440 whole entry): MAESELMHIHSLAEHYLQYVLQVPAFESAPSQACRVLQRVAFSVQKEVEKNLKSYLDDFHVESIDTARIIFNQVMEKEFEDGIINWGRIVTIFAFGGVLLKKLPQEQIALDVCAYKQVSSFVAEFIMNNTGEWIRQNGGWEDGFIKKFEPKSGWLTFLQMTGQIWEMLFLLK
The data set is classed as functional.

The target of data set [9] is T5, DNA repair protein RAD52 homolog (Homo sapiens, UniProt P43351).
T5 sequence (P43351 whole entry): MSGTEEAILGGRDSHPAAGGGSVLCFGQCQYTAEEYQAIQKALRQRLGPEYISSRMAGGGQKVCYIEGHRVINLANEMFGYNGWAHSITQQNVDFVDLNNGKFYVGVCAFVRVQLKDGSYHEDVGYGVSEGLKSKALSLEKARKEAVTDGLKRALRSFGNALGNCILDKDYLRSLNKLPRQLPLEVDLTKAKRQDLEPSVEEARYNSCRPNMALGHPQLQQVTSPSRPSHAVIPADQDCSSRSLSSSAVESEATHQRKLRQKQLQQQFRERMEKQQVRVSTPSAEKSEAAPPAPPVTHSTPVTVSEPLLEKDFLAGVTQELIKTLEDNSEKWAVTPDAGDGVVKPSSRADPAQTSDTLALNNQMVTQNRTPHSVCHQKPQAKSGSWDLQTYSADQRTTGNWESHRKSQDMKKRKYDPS
It counts as functional, biochemical.

The nature of data set [10]: luciferase reporter signal suppression in cells – H4 neuroglioma cells, luminescence, dose response (AID 1990). It counts as functional, cell-based.
The nature of data set [11]: alpha-synuclein stem-loop luciferase translation blockers – H4 neuroglioma cells, luminescence, confirmation (AID 1988). It counts as functional, cell-based.
The test system of a further data set is INS1. Put plainly: INS-1E survival protection against cytokine death – cell-based, luminescence, retest, dose response (AID 449756).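 Note: cell death triggered by IL-1 beta plus TNF-alpha plus IFN-gamma mixture; protective hits raise ATP signal compared with cytokine alone wells.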 It counts as functional. The settings on record: Rattus norvegicus.
Data set [12] can be described thus: Luminescence Cell-Based Dose Response HTS to Identify Inhibitors of 5'UTR Stem-Loop Driven Prion Protein mRNA Translation in H4 Neuroglioblastoma Cells. [Related pubchem assays: 1827 (Project Summary), 1813 (Primary HTS)]. It counts as functional.
Another data set deals with Cytochrome P450 2C9 (Homo sapiens, UniProt P11712).
For another data set, the target named is Cytochrome P450 3A4 (Homo sapiens, UniProt P08684).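 Note: CYP3A4 tested as one member of a cytochrome P450 panel screen.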
The target of a further data set is Cytochrome P450 2C19 (Homo sapiens, UniProt P33261). Put plainly: Cytochrome panel assay with activity outcomes. Panel member name: p450-cyp2c19 Compounds with AC50 equal or less than 10 uM are considered active. The data set is classed as functional.
The next data set has as its target T6, Cytochrome P450 1A2 (Homo sapiens, UniProt P05177).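 Note: PubChem cytochrome P450 panel assay, CYP1A2 panel member.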
T6 sequence (P05177 whole entry): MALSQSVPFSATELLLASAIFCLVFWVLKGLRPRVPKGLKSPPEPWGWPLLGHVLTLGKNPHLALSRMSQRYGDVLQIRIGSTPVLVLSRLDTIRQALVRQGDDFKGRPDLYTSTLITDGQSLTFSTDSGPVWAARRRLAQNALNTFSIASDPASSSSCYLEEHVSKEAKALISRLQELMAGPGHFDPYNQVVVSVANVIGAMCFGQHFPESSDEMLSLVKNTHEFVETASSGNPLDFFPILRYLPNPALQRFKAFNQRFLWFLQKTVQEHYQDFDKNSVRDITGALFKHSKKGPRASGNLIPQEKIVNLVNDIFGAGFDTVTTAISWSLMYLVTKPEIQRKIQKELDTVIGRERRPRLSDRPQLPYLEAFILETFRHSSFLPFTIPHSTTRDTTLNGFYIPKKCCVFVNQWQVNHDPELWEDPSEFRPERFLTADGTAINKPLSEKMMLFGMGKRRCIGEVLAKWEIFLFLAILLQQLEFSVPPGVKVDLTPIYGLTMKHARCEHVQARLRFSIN

A short description of data set [13]: Luminescence Cell-Based Dose Retest to Confirm Inhibitors of Cancer Stem Cells. [Related pubchem assays (depositor defined):AID2717, AID2721]. The conditions noted are these: Homo sapiens. The data set is classed as functional.
For a further data set, the target named is Melanocortin receptor 4 (Homo sapiens, UniProt P32245). It counts as functional, cell-based.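 Note: Cell-based assay with luminescence read-out, confirmatory dose-response testing for agonist activity of biased ligands at MC4R; human U2OS cells with tagged receptor and beta-arrestin; potency of agonists that increase receptor coupling to beta-arrestin.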
Data set [14] is described as follows: microbe, parasite or virus in culture. It counts as functional. The settings on record: Mycobacterium tuberculosis.

Cytochrome P450 3A4, sequence (P08684 whole entry): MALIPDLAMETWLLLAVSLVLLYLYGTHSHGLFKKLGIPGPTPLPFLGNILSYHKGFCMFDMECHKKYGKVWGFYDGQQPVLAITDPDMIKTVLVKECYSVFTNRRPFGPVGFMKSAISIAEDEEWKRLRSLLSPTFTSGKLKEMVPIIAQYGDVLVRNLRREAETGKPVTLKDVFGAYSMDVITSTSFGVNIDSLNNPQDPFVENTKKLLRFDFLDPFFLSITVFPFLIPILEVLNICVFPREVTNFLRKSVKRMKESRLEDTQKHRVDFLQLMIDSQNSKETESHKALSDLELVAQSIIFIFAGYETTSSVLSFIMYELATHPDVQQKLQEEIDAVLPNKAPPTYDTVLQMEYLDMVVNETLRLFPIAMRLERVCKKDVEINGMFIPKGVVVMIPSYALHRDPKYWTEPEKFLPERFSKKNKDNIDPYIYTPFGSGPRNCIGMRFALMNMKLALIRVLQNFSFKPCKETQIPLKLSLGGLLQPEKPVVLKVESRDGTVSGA
Cytochrome P450 2C9, sequence (P11712 whole entry): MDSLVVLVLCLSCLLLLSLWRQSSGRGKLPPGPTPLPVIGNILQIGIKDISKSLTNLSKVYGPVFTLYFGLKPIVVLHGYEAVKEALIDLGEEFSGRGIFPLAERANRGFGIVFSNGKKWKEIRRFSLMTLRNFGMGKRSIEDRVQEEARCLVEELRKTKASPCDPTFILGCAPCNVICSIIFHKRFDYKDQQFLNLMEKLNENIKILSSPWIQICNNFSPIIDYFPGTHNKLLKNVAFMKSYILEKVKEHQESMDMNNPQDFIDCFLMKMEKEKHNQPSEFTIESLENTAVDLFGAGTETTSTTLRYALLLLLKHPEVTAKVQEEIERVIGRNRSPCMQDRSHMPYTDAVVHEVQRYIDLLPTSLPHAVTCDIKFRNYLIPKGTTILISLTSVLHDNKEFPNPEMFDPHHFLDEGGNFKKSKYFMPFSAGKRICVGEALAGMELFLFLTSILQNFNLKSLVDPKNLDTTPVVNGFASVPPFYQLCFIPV
Melanocortin receptor 4, sequence (P32245 whole entry): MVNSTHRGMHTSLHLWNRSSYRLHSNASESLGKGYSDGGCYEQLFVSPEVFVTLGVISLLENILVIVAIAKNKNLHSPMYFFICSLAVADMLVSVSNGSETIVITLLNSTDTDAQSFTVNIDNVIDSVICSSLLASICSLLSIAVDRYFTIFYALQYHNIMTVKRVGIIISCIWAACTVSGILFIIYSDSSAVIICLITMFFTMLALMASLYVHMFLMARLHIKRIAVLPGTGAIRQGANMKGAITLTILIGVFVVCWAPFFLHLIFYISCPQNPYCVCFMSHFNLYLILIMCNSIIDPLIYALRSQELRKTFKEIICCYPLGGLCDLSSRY
Nonstructural protein 1, sequence (Q194T2 whole entry): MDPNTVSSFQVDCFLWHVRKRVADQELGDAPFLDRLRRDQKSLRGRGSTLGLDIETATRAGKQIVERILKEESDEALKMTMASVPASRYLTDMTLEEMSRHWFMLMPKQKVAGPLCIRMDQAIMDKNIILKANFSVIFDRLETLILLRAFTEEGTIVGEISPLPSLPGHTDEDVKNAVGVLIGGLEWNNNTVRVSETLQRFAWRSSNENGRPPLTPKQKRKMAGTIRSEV
Cytochrome P450 2C19, sequence (P33261 whole entry): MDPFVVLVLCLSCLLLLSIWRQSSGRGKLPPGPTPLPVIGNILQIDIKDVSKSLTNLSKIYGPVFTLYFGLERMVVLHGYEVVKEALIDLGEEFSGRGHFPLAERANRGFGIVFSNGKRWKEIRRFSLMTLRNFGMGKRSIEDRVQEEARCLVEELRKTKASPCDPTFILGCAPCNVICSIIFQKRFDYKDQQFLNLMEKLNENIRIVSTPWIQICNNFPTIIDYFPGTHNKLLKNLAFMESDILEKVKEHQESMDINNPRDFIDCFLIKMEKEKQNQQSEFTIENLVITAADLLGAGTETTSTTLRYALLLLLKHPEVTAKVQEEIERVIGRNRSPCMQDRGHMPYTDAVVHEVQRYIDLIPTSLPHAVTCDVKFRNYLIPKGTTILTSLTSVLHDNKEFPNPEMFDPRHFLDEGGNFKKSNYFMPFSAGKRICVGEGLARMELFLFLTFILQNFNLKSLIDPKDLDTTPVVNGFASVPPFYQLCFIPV

For `COc1ccc(S(=O)(=O)N2N=C(C)Oc3ccccc3C2=O)cc1`, the IC50 (in general, the midpoint of a concentration-inhibition curve) in data set [1] was > 80 µM (inactive).

Consider `Oc1ccc(/C=N/n2c(S)nnc2-c2ccccc2)cc1Br`, for which the concentration at half-maximal activity (AC50) (usually the midpoint of the concentration-response curve, whichever way the signal moves) in [2] was 11.8 µM (active).

As to `CC(=O)Oc1ccc(C(=O)Cc2ccccn2)c(O)c1`, the AC50 in the data set on Escherichia coli was 27.9 µM (active).

Regarding `COC(=O)C(C)Oc1cc(C)cc2oc(=O)c3c(c12)CCCC3` (stereo not drawn), in the data set on Escherichia coli, the AC50 was 28.2 µM (active).

On to `O=C(/C=C/c1ccccc1)Nc1cccnc1Oc1ccccc1F`, for which the AC50 in [2] was 11.1 µM (active).

On to `Cc1c(C(=O)N/N=C/c2ccc(Cl)cc2)[nH]c2ccc(Cl)cc12`, for which the EC50 (usually the concentration that produces a half-maximal response) was > 150 µM (not active) on Streptokinase A, 2.61 µM (active) in data set [3] and 10.9 µM (active) with Streptococcus. Further, in data set [1], the IC50 was > 80 µM (inactive).

On to `Cc1ccc(N2CN=c3s/c(=C\c4ccccn4)c(=O)n3C2)cc1`, for which the EC50 in data set [4] was 29.5 µM (active); in data set [5] it was > 120 µM (not active); in the data set on H4, > 120 µM (not active); in data set [6] it was > 195 µM (not active). Further, in [2], the concentration at half-maximal activity (AC50) is 3.58 µM (active).

Regarding `O=C(c1ccc(-c2cc(O)c3ncccc3c2)cc1)N1CCNCC1`, the IC50 in data set [7] is 3.14 µM (active); in data set [8], 3.61 µM (active); on Nonstructural protein 1 it was 9.74 µM (active); at Bcl-2-related protein A1, 7 µM (active). Also, the AC50 in data set [9] was 1.66 µM (active).

Regarding `CCN1CCN(Cc2ccc(NC(=O)c3cc(NC(=O)C(=O)c4c[nH]c5ccccc45)cc(OC)c3)cc2C(F)(F)F)CC1`, the IC50 in data set [7] is 11.9 µM (active); in data set [8], 16.8 µM (active); on Bcl-2-related protein A1, > 20 µM (inactive). Besides, the EC50 in data set [10] is 8.53 µM (active); in [11], 9.06 µM (active); in data set [12], 6.9 µM (active). Moreover, the AC50 in the data set with INS1 is 7.13 µM (active).

Take `O=C(c1ccccc1F)c1cn(Cc2ccccc2)c2ccccc12`: the values for the AC50 at Cytochrome P450 2C9 and on Cytochrome P450 3A4 were 35.5 µM (inconclusive) and “inconclusive”, respectively.

On to `O=C(c1cn(Cc2ccccc2)nc1-c1ccccc1)N1CCN(c2ccccn2)CC1`, for which the IC50 in [1] was > 80 µM (inactive).

As to `CC(=O)O[C@H]1CC[C@@]2(C)[C@@H](CC[C@H]3[C@H]2CC(=O)[C@]2(C)[C@@H]3C[C@@H](N3CC3)[C@H]2C(C)=O)C1`, the AC50 entry at Cytochrome P450 2C19 is “inconclusive”; on Cytochrome P450 1A2, 0.0398 µM (inconclusive); at Cytochrome P450 3A4 it was “inconclusive”.

As to `C=CCN1CCc2c(cc(O)c(O)c2Cl)[C@H](c2ccccc2)C1`, the AC50 on Cytochrome P450 1A2 was 20 µM (inconclusive); at Cytochrome P450 2C9, 31.6 µM (inconclusive); on Cytochrome P450 3A4, “inconclusive”.

For the compound `Oc1ccc(/C=N/n2c(-c3ccccc3)n[nH]c2=S)cc1`, the AC50 in data set [2] was 4.2 µM (active).

With `COC(=O)Cc1cc(O)n2nc(C)c(-c3ccccc3)c2n1`, the AC50 entry on Cytochrome P450 3A4 was “inconclusive”.

On to `O=C(C[n+]1ccc(CCSc2ccc(F)cc2)cc1)c1ccccc1`, for which the IC50 in [7] was 1.02 µM (active); in data set [8] it was 1.46 µM (active); at Bcl-2-related protein A1, 5.2 µM (active).

`COc1cc2nc(Nc3ccc(C)c(Cl)c3)nc(N)c2cc1OC`: the IC50 was 5.71 µM (active) in [7], 8.57 µM (active) in data set [8] and 18.7 µM (active) on Bcl-2-related protein A1. Further, the AC50 in data set [13] was 6.52 µM (active); in [9] it was 9.23 µM (active). Further, the EC50 at Melanocortin receptor 4 is > 89.2 µM (inactive). Besides, the CC50 in data set [14] is 3.77 µM (active).

Turning to `Cc1cccc(/C=N/NC(=O)c2cc(C3CC3)nc3ccccc23)n1`, the AC50 with Escherichia coli was 37.9 µM (active).
